US8258114B2, “Modulation of glucose-6-phosphatase translocase expression” (Isis Pharmaceuticals, Inc., priority 2004, dated 2012)
Oligonucleotides are written 5' to 3', each unit as a sugar letter and its base; * is a phosphorothioate linkage, no mark a phosphodiester; rarer units and linkages stand in square brackets, end groups in braces. Plain capitals give the bases only. e = 2'-O-(2-methoxyethyl) (MOE); [5mC] = 5-methylcytosine; d = 2'-deoxy (DNA)

Test system: mouse glucose-6-phosphatase translocase mRNA
Assay: Antisense inhibition of mouse glucose-6-phosphatase translocase mRNA in primary mouse hepatocytes, 50 nM (Table 5)
Assay type: cell-based
Details: 50 nM oligonucleotide, mRNA by real-time PCR, normalized with RIBOGREEN
Procedure: Primary mouse hepatocytes were prepared from CD-1 mice purchased from Charles River Labs. Primary mouse hepatocytes were routinely cultured in Hepatocyte Attachment Media supplemented with 10% fetal bovine serum (Invitrogen Life Technologies, Carlsbad, Calif.), 250 nM dexamethasone, and 10 nM bovine insulin (Sigma-Aldrich, St. Louis, Mo.). Cells were seeded into 96-well plates (Falcon-Primaria #353872, BD Biosciences, Bedford, Mass.) at a density of approximately 4,000-6,000 cells/well for use in oligomeric compound transfection experiments.
(§1) Quantitation of glucose 6-phosphatase translocase mRNA levels was accomplished by real-time quantitative PCR using the ABI PRISM™ 7600, 7700, or 7900 Sequence Detection System (PE-Applied Biosystems, Foster City, Calif.) according to manufacturer's instructions.
(§2) Prior to quantitative PCR analysis, primer-probe sets specific to the target gene being measured were evaluated for their ability to be “multiplexed” with a GAPDH amplification reaction. After isolation the RNA is subjected to sequential reverse transcriptase (RT) reaction and real-time PCR, both of which are performed in the same well. RT and PCR reagents were obtained from Invitrogen Life Technologies (Carlsbad, Calif.). […] The RT reaction was carried out by incubation for 30 minutes at 48° C. Following a 10 minute incubation at 95° C. to activate the PLATINUM® Taq, 40 cycles of a two-step PCR protocol were carried out: 95° C. for 15 seconds (denaturation) followed by 60° C. for 1.5 minutes (annealing/extension).
(§3) Gene target quantities obtained by RT, real-time PCR were normalized using either the expression level of GAPDH, a gene whose expression is constant, or by quantifying total RNA using RiboGreen™ (Molecular Probes, Inc. Eugene, Oreg.). GAPDH expression was quantified by RT, real-time PCR, by being run simultaneously with the target, multiplexing, or separately. Total RNA was quantified using RiboGreen™ RNA quantification reagent (Molecular Probes, Inc. Eugene, Oreg.).
A series of oligomeric compounds was designed to target different regions of mouse glucose-6-phosphatase translocase, using published sequences cited in Table 1. All compounds in Table 5 are chimeric oligonucleotides (“gapmers”) 20 nucleotides in length, composed of a central “gap” region consisting of 10 2′-deoxynucleotides, which is flanked on both sides (5′ and 3′) by five-nucleotide “wings”. The wings are composed of 2′-O-(2-methoxyethyl) nucleotides, also known as 2′-MOE nucleotides. The internucleoside (backbone) linkages are phosphorothioate throughout the oligonucleotide. All cytidine residues are 5-methylcytidines. The compounds were analyzed for their effect on gene target mRNA levels by quantitative real-time PCR as described in other examples herein, using the following primer-probe set designed to hybridize to mouse glucose-6-phosphatase translocase: • forward primer: […] (SEQ ID NO: 66) • reverse primer: CCATCCCAGCCATCATGAG (SEQ ID NO: 67) and the PCR probe was: FAM-[…]-TAMRA (SEQ ID NO: 68) where FAM is the fluorescent reporter dye and TAMRA is the quencher dye. Mouse target gene quantities were normalized by quantifying total RNA using RIBOGREEN™.
Data are from experiments in which primary mouse hepatocytes were treated with 50 nM of the antisense oligonucleotides of the present invention. A reduction in expression is expressed as percent inhibition in Table 5. If present, “N.D.” indicates “not determined”. The target regions to which these oligomeric compounds are inhibitory are herein referred to as “validated target segments.”

Row | Sequence | % Inhib
1 | TCATGCTGGTTGACAACACA (eT*e[5mC]*eA*eT*eG*d[5mC]*dT*dG*dG*dT*dT*dG*dA*d[5mC]*dA*eA*e[5mC]*eA*e[5mC]*eA; antisense) [ISIS 148955] | 36%
2 | TCCTCTCCTCCCTTAGGGAC (eT*e[5mC]*e[5mC]*eT*e[5mC]*dT*d[5mC]*d[5mC]*dT*d[5mC]*d[5mC]*d[5mC]*dT*dT*dA*eG*eG*eG*eA*e[5mC]; antisense) [ISIS 149004] | 42%
3 | TCGTCCTTGTCCAGAGCGAT (eT*e[5mC]*eG*eT*e[5mC]*d[5mC]*dT*dT*dG*dT*d[5mC]*d[5mC]*dA*dG*dA*eG*e[5mC]*eG*eA*eT; antisense) [ISIS 148946] | 70%
4 | TCTCTTTAGTGCCTGGATCT (eT*e[5mC]*eT*e[5mC]*eT*dT*dT*dA*dG*dT*dG*d[5mC]*d[5mC]*dT*dG*eG*eA*eT*e[5mC]*eT; antisense) [ISIS 148937] | 52%
5 | TGCCTGGATCTGCTGAGCTG (eT*eG*e[5mC]*e[5mC]*eT*dG*dG*dA*dT*d[5mC]*dT*dG*d[5mC]*dT*dG*eA*eG*e[5mC]*eT*eG; antisense) [ISIS 148936] | 39%
6 | TGTGCTCCAGCTATAGTGCT (eT*eG*eT*eG*e[5mC]*dT*d[5mC]*d[5mC]*dA*dG*d[5mC]*dT*dA*dT*dA*eG*eT*eG*e[5mC]*eT; antisense) [ISIS 148981] | 59%

Test system: human glucose-6-phosphatase translocase mRNA
Assay: Antisense inhibition of human glucose-6-phosphatase translocase mRNA in HepG2 cells (Table 11)
Assay type: cell-based
Parameters: concentration or dose not given beside the values
Details: LIPOFECTIN, mRNA by real-time PCR
Procedure: The human hepatoblastoma cell line HepG2 was obtained from the American Type Culture Collection (Manassas, Va.). HepG2 cells were routinely cultured in Eagle's MEM supplemented with 10% fetal bovine serum, 1 mM non-essential amino acids, and 1 mM sodium pyruvate (Invitrogen Life Technologies, Carlsbad, Calif.). Cells were routinely passaged by trypsinization and dilution when they reached approximately 90% confluence. Multiwell culture plates are prepared for cell culture by coating with a 1:100 dilution of type 1 rat tail collagen (BD Biosciences, Bedford, Mass.) in phosphate-buffered saline. The collagen-containing plates were incubated at 37° C. for approximately 1 hour, after which the collagen was removed and the wells were washed twice with phosphate-buffered saline. Cells were seeded into 96-well plates (Falcon-Primaria #353872, BD Biosciences, Bedford, Mass.) at a density of approximately 8,000 cells/well for use in oligomeric compound transfection experiments.
When cells reached 65-75% confluency, they were treated with oligonucleotide. Oligonucleotide was mixed with LIPOFECTIN™ Invitrogen Life Technologies, Carlsbad, Calif.) in Opti-MEM™-1 reduced serum medium (Invitrogen Life Technologies, Carlsbad, Calif.) to achieve the desired concentration of oligonucleotide and a LIPOFECTIN™ concentration of 2.5 or 3 μg/mL per 100 nM oligonucleotide. This transfection mixture was incubated at room temperature for approximately 0.5 hours. For cells grown in 96-well plates, wells were washed once with 100 μL OPTI-MEM™-1 and then treated with 130 μL of the transfection mixture. Cells grown in 24-well plates or other standard tissue culture plates are treated similarly, using appropriate volumes of medium and oligonucleotide. Cells are treated and data are obtained in duplicate or triplicate. After approximately 4-7 hours of treatment at 37° C., the medium containing the transfection mixture was replaced with fresh culture medium. Cells were harvested 16-24 hours after oligonucleotide treatment.
as §1, §2, §3
A series of oligomeric compounds was designed to target different regions of human glucose-6-phosphatase translocase, using published sequences cited in Table 1. All compounds in Table 4 are chimeric oligonucleotides (“gapmers”) 20 nucleotides in length, composed of a central “gap” region consisting of 10 2′-deoxynucleotides, which is flanked on both sides (5′ and 3′) by five-nucleotide “wings”. The wings are composed of 2′-O-(2-methoxyethyl) nucleotides, also known as 2′-MOE nucleotides. […]

Row | Sequence | % Inhib
7 | ACAACCACACACAGTGCCCC (eA*e[5mC]*eA*eA*e[5mC]*d[5mC]*dA*d[5mC]*dA*d[5mC]*dA*d[5mC]*dA*dG*dT*eG*e[5mC]*e[5mC]*e[5mC]*e[5mC]; antisense) [ISIS 359519] | 53%
8 | ACAGCTCCCAATACCAGGAT (eA*e[5mC]*eA*eG*e[5mC]*dT*d[5mC]*d[5mC]*d[5mC]*dA*dA*dT*dA*d[5mC]*d[5mC]*eA*eG*eG*eA*eT; antisense) [ISIS 359537] | 93%
9 | ACATCAGCAGGTTCATTGTG (eA*e[5mC]*eA*eT*e[5mC]*dA*dG*d[5mC]*dA*dG*dG*dT*dT*d[5mC]*dA*eT*eT*eG*eT*eG; antisense) [ISIS 359523] | 43%
10 | ACCAAGTGCCAAACTGAGAT (eA*e[5mC]*e[5mC]*eA*eA*dG*dT*dG*d[5mC]*d[5mC]*dA*dA*dA*d[5mC]*dT*eG*eA*eG*eA*eT; antisense) [ISIS 359509] | 24%
11 | ACTCGGCCCATCTTGGTGCG (eA*e[5mC]*eT*e[5mC]*eG*dG*d[5mC]*d[5mC]*d[5mC]*dA*dT*d[5mC]*dT*dT*dG*eG*eT*eG*e[5mC]*eG; antisense) [ISIS 359548] | 96%
12 | AGAGGAAGGAGACAACCACA (eA*eG*eA*eG*eG*dA*dA*dG*dG*dA*dG*dA*d[5mC]*dA*dA*e[5mC]*e[5mC]*eA*e[5mC]*eA; antisense) [ISIS 359521] | 32%
13 | AGCAGGTTCATTGTGGATGA (eA*eG*e[5mC]*eA*eG*dG*dT*dT*d[5mC]*dA*dT*dT*dG*dT*dG*eG*eA*eT*eG*eA; antisense) [ISIS 359522] | 91%
14 | AGCCAGGTTCATGCTGGTTG (eA*eG*e[5mC]*e[5mC]*eA*dG*dG*dT*dT*d[5mC]*dA*dT*dG*d[5mC]*dT*eG*eG*eT*eT*eG; antisense) [ISIS 359513] | 62%
15 | ATGGCCCACCAAGTGCCAAA (eA*eT*eG*eG*e[5mC]*d[5mC]*d[5mC]*dA*d[5mC]*d[5mC]*dA*dA*dG*dT*dG*e[5mC]*e[5mC]*eA*eA*eA; antisense) [ISIS 359510] | 38%
16 | CAAATACAGCTCCCAATACC (e[5mC]*eA*eA*eA*eT*dA*d[5mC]*dA*dG*d[5mC]*dT*d[5mC]*d[5mC]*d[5mC]*dA*eA*eT*eA*e[5mC]*e[5mC]; antisense) [ISIS 359538] | 29%
17 | CAAGGAGCCCTTCTTGCCCT (e[5mC]*eA*eA*eG*eG*dA*dG*d[5mC]*d[5mC]*d[5mC]*dT*dT*d[5mC]*dT*dT*eG*e[5mC]*e[5mC]*e[5mC]*eT; antisense) [ISIS 359524] | 56%
18 | CAGGCCAACCAGGAGCAGCC (e[5mC]*eA*eG*eG*e[5mC]*d[5mC]*dA*dA*d[5mC]*d[5mC]*dA*dG*dG*dA*dG*e[5mC]*eA*eG*e[5mC]*e[5mC]; antisense) [ISIS 359508] | 68%
19 | CATGCTGGTTGACAGGATGG (e[5mC]*eA*eT*eG*e[5mC]*dT*dG*dG*dT*dT*dG*dA*d[5mC]*dA*dG*eG*eA*eT*eG*eG; antisense) [ISIS 359512] | 43%
20 | CCAACCAGGAGCAGCCCAGA (e[5mC]*e[5mC]*eA*eA*e[5mC]*d[5mC]*dA*dG*dG*dA*dG*d[5mC]*dA*dG*d[5mC]*e[5mC]*e[5mC]*eA*eG*eA; antisense) [ISIS 359507] | 49%
21 | CCAGCCCTCCAGCCAGGTTC (e[5mC]*e[5mC]*eA*eG*e[5mC]*d[5mC]*d[5mC]*dT*d[5mC]*d[5mC]*dA*dG*d[5mC]*d[5mC]*dA*eG*eG*eT*eT*e[5mC]; antisense) [ISIS 359516] | 69%
22 | CCAGCGTGCTGCGCCAGCTG (e[5mC]*e[5mC]*eA*eG*e[5mC]*dG*dT*dG*d[5mC]*dT*dG*d[5mC]*dG*d[5mC]*d[5mC]*eA*eG*e[5mC]*eT*eG; antisense) [ISIS 359518] | 47%
23 | CCAGGAGCAGCCCAGAAGAG (e[5mC]*e[5mC]*eA*eG*eG*dA*dG*d[5mC]*dA*dG*d[5mC]*d[5mC]*d[5mC]*dA*dG*eA*eA*eG*eA*eG; antisense) [ISIS 359506] | 58%
24 | CCATACGAGGAGAAACCAAA (e[5mC]*e[5mC]*eA*eT*eA*d[5mC]*dG*dA*dG*dG*dA*dG*dA*dA*dA*e[5mC]*e[5mC]*eA*eA*eA; antisense) [ISIS 359542] | 46%
25 | CCATCTTGGTGCGGATGTTT (e[5mC]*e[5mC]*eA*eT*e[5mC]*dT*dT*dG*dG*dT*dG*d[5mC]*dG*dG*dA*eT*eG*eT*eT*eT; antisense) [ISIS 359547] | 91%
26 | CCCTCCAGCCAGGTTCATGC (e[5mC]*e[5mC]*e[5mC]*eT*e[5mC]*d[5mC]*dA*dG*d[5mC]*d[5mC]*dA*dG*dG*dT*dT*e[5mC]*eA*eT*eG*e[5mC]; antisense) [ISIS 359515] | 62%
27 | CGAGGAGAAACCAAATACAG (e[5mC]*eG*eA*eG*eG*dA*dG*dA*dA*dA*d[5mC]*d[5mC]*dA*dA*dA*eT*eA*e[5mC]*eA*eG; antisense) [ISIS 359541] | 41%
